Laboratory results published in ChEMBL document CHEMBL4043153, “Lead selection of antiparasitic compounds from a focused library of benzenesulfonyl derivatives of heterocycles” (Bioorg Med Chem Lett, 2017).

How the values were obtained:
Format in all cases: functional
[1] = test system: Trypanosoma brucei rhodesiense; experiment: Antiparasitic activity against Trypanosoma brucei rhodesiense STIB 900 trypomastigote bloodstream form assessed as growth inhibition at 0.8 ug/ml after 72 hrs by resazurin dye-based fluorometric analysis relative to control; settings: STIB 900, 72 h, read-out: GI
[2] = test system: Trypanosoma brucei rhodesiense; experiment: Antiparasitic activity against Trypanosoma brucei rhodesiense STIB 900 trypomastigote bloodstream form assessed as growth inhibition at 4.8 ug/ml after 72 hrs by resazurin dye-based fluorometric analysis relative to control; settings: STIB 900, 72 h, read-out: GI
[3] = test system: Trypanosoma cruzi; experiment: Antiparasitic activity against Trypanosoma cruzi Tulahuen C4 intracellular amastigotes infected in rat L6 cells assessed as growth inhibition at 4.8 ug/ml after 96 hrs by CPRG/Nonidet reagent based photometric analysis relative to control; settings: Tulahuen C4, L6, 96 h, read-out: GI
[4] = test system: Plasmodium falciparum; experiment: (§1) Antiparasitic activity against intraerythrocytic form of chloroquine/pyrimethamine-resistant Plasmodium falciparum K1 infected in human RBC assessed as growth inhibition at 0.8 ug/ml preincubated for 48 hrs followed by [3H]-hypoxanthine addition measured after 24 hrs by liquid scintillation counting analysis relative to control; settings: read-out: GI
[5] = test system: Leishmania donovani; experiment: Antiparasitic activity against Leishmania donovani MHOM-ET-67/L82 axenic amastigotes assessed as growth inhibition at 4.8 ug/ml after 72 hrs by resazurin dye-based fluorometric analysis relative to control; settings: MHOM-ET-67/L82, 72 h, read-out: GI
[6] = test system: Plasmodium falciparum; experiment: as §1, with “4.8” for “0.8”; settings: read-out: GI
[7] = test system: Leishmania donovani; experiment: Antiparasitic activity against Leishmania donovani MHOM-ET-67/L82 axenic amastigotes assessed as growth inhibition at 0.8 ug/ml after 72 hrs by resazurin dye-based fluorometric analysis relative to control; settings: MHOM-ET-67/L82, 72 h, read-out: GI
[8] = test system: Trypanosoma cruzi; experiment: Antiparasitic activity against Trypanosoma cruzi Tulahuen C4 intracellular amastigotes infected in rat L6 cells assessed as growth inhibition at 0.8 ug/ml after 96 hrs by CPRG/Nonidet reagent based photometric analysis relative to control; settings: Tulahuen C4, L6, 96 h, read-out: GI

Row | Compound | inhibition of growth at 0.8 µg/mL [1] [%] | inhibition of growth at 4.8 µg/mL [2] [%] | inhibition of growth at 4.8 µg/mL [3] [%] | inhibition of growth at 0.8 µg/mL [4] [%] | inhibition of growth at 4.8 µg/mL [5] [%] | inhibition of growth at 4.8 µg/mL [6] [%] | inhibition of growth at 0.8 µg/mL [7] [%] | inhibition of growth at 0.8 µg/mL [8] [%]
1 | Cc1ccc(S(=O)(=O)N2c3ccccc3CC2C)cc1 (centres undefined) | 3.5 | 0 | 93.4 | 7.7 | 5.3 | 53.1 | 9.4 | 0
2 | CC1Cc2ccccc2N1S(=O)(=O)c1ccc(F)cc1 (centres undefined) | 2.3 | 0 | 4.8 | 12.6 | 47 | 65 | 4 | 0
3 | O=S(=O)(c1ccc(C(F)(F)F)cc1)N1CCc2ccccc2C1 | 0.7 | 5.8 | 27.3 | 0.6 | 58.3 | 22.7 | 40.8 | 0
4 | CC1Cc2ccccc2N1S(=O)(=O)c1ccc(C(F)(F)F)cc1 (centres undefined) | 0 | 1.2 | 54.6 | 12.7 | 86.2 | 91.4 | 17.9 | 0
5 | O=[N+]([O-])c1cccc(S(=O)(=O)n2ccc3ccccc32)c1 | 1.9 | 3.9 | 40.5 | 8 | 59.3 | 68.8 | 11.7 | 0
6 | CC1Cc2ccccc2N1S(=O)(=O)c1cccc(C(F)(F)F)c1 (centres undefined) | 0 | 0 | 5.7 | 15.1 | 77.6 | 77.1 | 13.5 | 0
7 | CC(=O)c1ccc(S(=O)(=O)n2ccc3ccccc32)cc1 | 2.2 | 0 | 0 | 12.2 | 25.9 | 40.8 | 0 | 0
8 | O=S(=O)(c1ccc(Br)cc1)n1ccc2ccccc21 | 0 | 0 | 0 | 0 | 48.1 | 45.9 | 11.5 | 0
9 | O=S(=O)(c1cccc(C(F)(F)F)c1)N1CCCc2ccccc21 | 2.4 | 2.5 | 62.6 | 6.6 | 73.1 | 68 | 23.7 | 10.4
10 | Cc1cc(C)c(C)c(S(=O)(=O)n2nnc3ccccc32)c1C | 0.7 | 4.7 | 2.9 | 0 | 45.6 | 0.1 | 28.4 | 0
11 | O=[N+]([O-])c1ccccc1S(=O)(=O)N1CCc2ccccc21 | 10.4 | 17.9 | 24.5 | 4 | 81.5 | 48 | 4 | 0
12 | O=S(=O)(c1ccc(Br)cc1)N1CCc2ccccc21 | 5.3 | 0 | 28.1 | 9.8 | 77.7 | 63.5 | 17.9 | 4.2
13 | CC1Cc2ccccc2N1S(=O)(=O)c1cccc([N+](=O)[O-])c1 (centres undefined) | 7 | 12.6 | 31.6 | 14.9 | 66.2 | 62.6 | 26 | 2.5
14 | O=S(=O)(c1cccc(C(F)(F)F)c1)n1ccc2ccccc21 | 0 | 0 | 3.3 | 5 | 45.7 | 61.1 | 11.7 | 0
15 | CC1Cc2ccccc2N1S(=O)(=O)c1ccccc1[N+](=O)[O-] (centres undefined) | 6.3 | 9.6 | 15.1 | 14.8 | 52.4 | 50.5 | 19.3 | 0
16 | O=S(=O)(c1ccc(Cl)cc1)N1CCc2ccccc21 | 0 | 0 | 1.5 | 3.7 | 73.6 | 63.7 | 6.9 | 0
17 | COc1ccc(S(=O)(=O)N2CCc3ccccc32)cc1 | 0 | 0 | 27.4 | 0 | 42.6 | 11.6 | 18.6 | 12.1
18 | O=[N+]([O-])c1ccccc1S(=O)(=O)n1ccc2ccccc21 | – | – | – | – | – | – | – | < 40
19 | CC(=O)c1ccc(S(=O)(=O)N2CCc3ccccc3C2)cc1 | 0 | 0 | 13.4 | 0.3 | 46.1 | 9.7 | 20.1 | 0
20 | O=[N+]([O-])c1ccccc1S(=O)(=O)n1nnc2ccccc21 | 0 | 1.3 | 7.1 | 0 | 89.4 | 0 | 32.7 | 7.3
21 | CC(C)(C)c1ccc(S(=O)(=O)n2ccc3ccccc32)cc1 | 0 | 0 | 0 | 13.9 | 92.2 | 92.3 | 27.3 | 0
22 | O=[N+]([O-])c1ccccc1S(=O)(=O)N1CCc2ccccc2C1 | 10.8 | 6.9 | 27.5 | 0 | 57 | 19.8 | 17.8 | 3.1
23 | O=S(=O)(c1ccc(C(F)(F)F)cc1)n1nnc2ccccc21 | 3.4 | 0.4 | 3 | 0 | 44.8 | 1 | 21.8 | 5.5
24 | CC(=O)c1ccc(S(=O)(=O)N2c3ccccc3CC2C)cc1 (centres undefined) | 0 | 0.4 | 23.7 | 7.3 | 26.8 | 46.3 | 0 | 0
25 | O=[N+]([O-])c1ccccc1S(=O)(=O)N1CCCc2ccccc21 | 6.2 | 17.1 | 26.9 | 3.5 | 50.1 | 38 | 10.1 | 0
26 | O=C(Cn1ccnc1[N+](=O)[O-])NCc1ccccc1 [BENZNIDAZOLE] | – | – | 98.5 | – | – | – | – | 63.3
27 | C[C@@H]1CC[C@H]2[C@@H](C)C(=O)O[C@@H]3O[C@@]4(C)CC[C@@H]1[C@]32OO4 [ARTEMISININ] | – | – | – | 80 | – | 100 | – | –
28 | Nc1nc(N)nc(Nc2ccc([As]3SCC(CO)S3)cc2)n1 (centres undefined) [MELARSOPROL] | 44.4 | 98.3 | – | – | – | – | – | –
